Tests used:
Axin2 expression = conditions: DLD-1 cells, exposure for 2 h; cited from earlier work
Dvl2/3 phosphorylation = assay: Western blot for biochemical markers of Wnt signaling in Hela cells: Dvl2/3 phosphorylation; type: cell-based; conditions: incubated 24 h, Western blot (FIG. 2)
Description: (§1) Cell lysates were then subjected to Western blot analysis for biochemical markers of Wnt signaling (LRP6 and Dvl2/3 phosphorylation).
(§2) Dishevelled (Dvl) phosphorylation is associated with both canonical and non-canonical Wnt signaling pathways.

LRP6 phosphorylation = assay: Western blot for biochemical markers of Wnt signaling in Hela cells: LRP6 phosphorylation; type: cell-based; conditions: incubated 24 h, Western blot (FIG. 2)
Description: as §1, §2

[1] = system: Wnt/b-catenin pathway activity in L-Wnt-STF cells; assay: Suppression of Wnt signaling in L-Wnt-STF cells (Firefly luciferase reporter); type: cell-based
Experimental: Chemical synthesis is described below in Example 3. L-Wnt-STF cells (Chen, et al., 2009) were seeded into each well of a white opaque 96-well plate and compounds added immediately thereafter. Luciferase activities (Firefly luciferase for Wnt/b-catenin pathway activity and Renilla luciferase activity as an irrelevant cell signal) were measured using a previously reported protocol (Wang, et al., 2013).
Additional IWPs to suppress Wnt signaling in L-Wnt-STF cells were synthesized and tested for their ability to suppress Wnt signaling as described above. The relevant data for some of the compounds are shown below in Table 1.

O=C(Nc1cccc2cccnc12)c1ccc(N2C(=O)[C@@H]3[C@H](C2=O)[C@@H]2C=C[C@H]3C2)cc1 [IWR-1]
expression of Axin2 (Axin2 expression): decrease

O=C(Cn1nnc(-c2ccncc2)c1-c1ccccc1)Nc1ccc(-c2ccccc2)cn1 [IWP-O1, 2-(5-Phenyl-4-(pyridin-4-yl)-1H-1,2,3-triazol-1-yl)-N-(5-phenylpyridin-2-yl)acetamide]
phosphorylation of Dvl2/3 (Dvl2/3 phosphorylation): effectively suppressed | phosphorylation of LRP6 (LRP6 phosphorylation): suppressed

Cc1cc(-c2ncc(CC(=O)Nc3ccc(-c4cnccn4)cn3)cc2C)ccn1 [LGK974, reference compound]
EC50 ([1]; Table 1 triazole substituent screening, L-Wnt-STF cells, normalized to LGK974 control): 0.2 nM

Cc1cc(-n2nnc(CC(=O)Nc3ccc(-c4ccccc4)cn3)c2-c2ccccc2)ccn1
EC50 ([1]; alternative substitution pattern of the triazole): 0.1 nM
